Tests used:
U-87 MG [1] = test: Antiproliferative activity against human U87 cells assessed as inhibition of cell growth inhibition incubated for 48 hrs by CCK-8 assay; format: functional, cell-based, U-87MG ATCC
A549 = test: Antiproliferative activity against human A549 cells assessed as inhibition of cell growth inhibition incubated for 48 hrs by CCK-8 assay; format: functional, cell-based; conditions: A549, 48 h
Huh-7 = test: Antiproliferative activity against human Huh-7 cells assessed as inhibition of cell growth inhibition incubated for 48 hrs by CCK-8 assay; format: functional, cell-based; conditions: Huh-7, 48 h
[2] = Cytotoxicity against HUVEC cells assessed as inhibition of cell growth inhibition incubated for 48 hrs by CCK-8 assay; format: toxicity, cell-based; conditions: human
U-87 MG [3] = test: Induction of cell cycle arrest in human U87 cells assessed as accumulation of cells at G1 phase at 25 nM measured after 48 hrs by PI staining based flow cytometry analysis (reference value: 72.6%); format: functional, U-87MG ATCC
U-87 MG [4] = test: Induction of cell cycle arrest in human U87 cells assessed as accumulation of cells at […] at 25 nM measured after 48 hrs by PI staining based flow cytometry analysis (reference value: 8.55%); format: functional, U-87MG ATCC
[5] = Toxicity in C57BL/6 mouse implanted with mouse GL261-Luc cells assessed as reduction in body weight at 5 mg/kg, iv administered every other day on day 0,2,4,6,8,10 and measured after 12 days; format: organism-based; conditions: in vivo, 288 h, time 12 day
[6] = Toxicity in C57BL/6 mouse implanted with mouse GL261-Luc cells assessed as reduction in body weight at 5 to 10 mg/kg, iv administered every other day on day 0,2,4,6,8,10 and measured after 12 days; format: organism-based; conditions: in vivo, 288 h, dose 5-10 mg/kg, time 12 day
[7] = Apparent permeability across apical to basolateral side in MDCK-MDR1 cells at 10 uM incubated for 90 mins by LC-MS/MS analysis; format: ADME, cell-based, Canis lupus familiaris; conditions: dog
[8] = Apparent permeability across basolateral to apical side in MDCK-MDR1 cells at 10 uM incubated for 90 mins by LC-MS/MS analysis; format: ADME, cell-based, Canis lupus familiaris; conditions: dog
P-gp = test: Substrate activity at P-gp in MDCK-MDR1 cells assessed as efflux ratio of apparent permeability across basolateral to apical side over apical to basolateral side at 10 uM incubated for 90 mins by LC-MS/MS analysis; format: ADME, cell-based, Canis lupus familiaris; conditions: dog

COc1cc(C2C(C#N)=C(N)Oc3c2ccc2ccc(C)nc32)cc(OC)c1Br (centres undefined)
IC50 (U-87 MG [1]): 2.87 µM
IC50 (A549): 1.59 µM
IC50 (Huh-7): 2.6 µM
IC50 at 48 h [2]: > 10 µM

COc1cc2c(c(OC)c1OC)-c1ccc(OC)c(=O)cc1[C@@H](NC(C)=O)CC2 [COLCHICINE]
Activity (U-87 MG [3]): 19.7%
Activity (U-87 MG [4]): 46.5%

Cn1nnc2c(C(N)=O)ncn2c1=O [TEMOZOLOMIDE]
Activity [5]: Non-Toxic
Activity [6]: Non-Toxic
Papp A→B at 1.5 h, 10 µM [7]: 30.6 ×10⁻⁶ cm/s
Papp B→A at 1.5 h, 10 µM [8]: 31.8 ×10⁻⁶ cm/s
efflux ratio at 1.5 h, 10 µM (P-gp): 1.04

N#CC1=C(N)Oc2c(ccc3cccnc23)C1c1ccccc1 (centres undefined)
IC50 (U-87 MG [1]): > 10 µM
IC50 (A549): > 10 µM
IC50 (Huh-7): 2.47 µM
IC50 at 48 h [2]: > 10 µM

N#CC1=C(N)Oc2c(cc(Cl)c3cccnc23)C1c1ccc(Cl)cc1 (centres undefined)
IC50 (U-87 MG [1]): > 10 µM
IC50 (A549): > 10 µM
IC50 (Huh-7): 4.57 µM
IC50 at 48 h [2]: 7.65 µM

Cc1ccc(C2C(C#N)=C(N)Oc3c2cc(Cl)c2cccnc32)cc1 (centres undefined)
IC50 (U-87 MG [1]): > 10 µM
IC50 (A549): > 10 µM
IC50 (Huh-7): > 10 µM
IC50 at 48 h [2]: > 10 µM

Cc1ccc2ccc3c(c2n1)OC(N)=C(C#N)C3c1ccc(Br)cc1 (centres undefined)
IC50 (U-87 MG [1]): > 10 µM
IC50 (A549): 8.12 µM
IC50 (Huh-7): > 10 µM
IC50 at 48 h [2]: > 10 µM

Cc1ccc2ccc3c(c2n1)OC(N)=C(C#N)C3c1ccc(Cl)cc1 (centres undefined)
IC50 (U-87 MG [1]): 8.08 µM
IC50 (A549): > 10 µM
IC50 (Huh-7): 5.31 µM
IC50 at 48 h [2]: > 10 µM

COc1ccc(C2C(C#N)=C(N)Oc3c2ccc2ccc(C)nc32)cc1OC (centres undefined)
IC50 (U-87 MG [1]): 4.85 µM
IC50 (A549): > 10 µM
IC50 (Huh-7): > 10 µM
IC50 at 48 h [2]: > 10 µM

COc1ccc(C2C(C#N)=C(N)Oc3c2ccc2ccc(C)nc32)c(OC)c1OC (centres undefined)
IC50 (U-87 MG [1]): 5.27 µM
IC50 (A549): 6.16 µM
IC50 (Huh-7): 4.89 µM
IC50 at 48 h [2]: > 10 µM

Cc1ccc2ccc3c(c2n1)OC(N)=C(C#N)C3c1ccc(Cl)c(Cl)c1 (centres undefined)
IC50 (U-87 MG [1]): 1.98 µM
IC50 (A549): 1.24 µM
IC50 (Huh-7): 1.25 µM
IC50 at 48 h [2]: 8.17 µM

CC(C)c1ccc(C2C(C#N)=C(N)Oc3c2ccc2cccnc32)cc1 (centres undefined)
IC50 (U-87 MG [1]): > 10 µM
IC50 (A549): > 10 µM
IC50 (Huh-7): > 10 µM
IC50 at 48 h [2]: > 10 µM

CC[C@@]1(O)C(=O)OCc2c1cc1n(c2=O)Cc2cc3cc(O)ccc3nc2-1 [HYDROXYCAMPTOTHECIN]
IC50 (U-87 MG [1]): 2.92 µM
IC50 (A549): 0.12 µM
IC50 (Huh-7): 1.35 µM
IC50 at 48 h [2]: 0.92 µM

N#CC1=C(N)Oc2c(ccc3cccnc23)C1c1ccc(Br)cc1 (centres undefined)
IC50 (U-87 MG [1]): > 10 µM
IC50 (A549): > 10 µM
IC50 (Huh-7): > 10 µM
IC50 at 48 h [2]: > 10 µM

N#CC1=C(N)Oc2c(cc(Cl)c3cccnc23)C1c1ccc(F)cc1 (centres undefined)
IC50 (U-87 MG [1]): > 10 µM
IC50 (A549): > 10 µM
IC50 (Huh-7): > 10 µM
IC50 at 48 h [2]: > 10 µM

N#CC1=C(N)Oc2c(cc(Cl)c3cccnc23)C1c1ccc(Br)cc1 (centres undefined)
IC50 (U-87 MG [1]): > 10 µM
IC50 (A549): > 10 µM
IC50 (Huh-7): > 10 µM
IC50 at 48 h [2]: > 10 µM

COc1ccc(C2C(C#N)=C(N)Oc3c2cc(Cl)c2cccnc32)c(OC)c1OC (centres undefined)
IC50 (U-87 MG [1]): > 10 µM
IC50 (A549): > 10 µM
IC50 (Huh-7): > 10 µM
IC50 at 48 h [2]: > 10 µM

C[C@H]1O[C@@H](O[C@H]2[C@@H](O)C[C@H](O[C@H]3[C@@H](O)C[C@H](O[C@H]4CC[C@@]5(C)[C@H](CC[C@@H]6[C@@H]5C[C@@H](O)[C@]5(C)[C@@H](C7=CC(=O)OC7)CC[C@]65O)C4)O[C@@H]3C)O[C@@H]2C)C[C@H](O)[C@@H]1O [DIGOXIN]
Papp A→B at 1.5 h, 10 µM [7]: 0.49 ×10⁻⁶ cm/s
Papp B→A at 1.5 h, 10 µM [8]: 18 ×10⁻⁶ cm/s
efflux ratio at 1.5 h, 10 µM (P-gp): 36.9

Cc1ccc2ccc3c(c2n1)OC(N)=C(C#N)C3c1ccc(C(C)C)cc1 (centres undefined)
IC50 (U-87 MG [1]): 4.28 µM
IC50 (A549): 4.57 µM
IC50 (Huh-7): 6.34 µM
IC50 at 48 h [2]: > 10 µM

N#CC1=C(N)Oc2c(ccc3cccnc23)C1c1ccc(Cl)c(Cl)c1 (centres undefined)
IC50 (U-87 MG [1]): 6.18 µM
IC50 (A549): 4.95 µM
IC50 (Huh-7): 2.35 µM
IC50 at 48 h [2]: 8.23 µM

Cc1ccc2ccc3c(c2n1)OC(N)=C(C#N)C3c1ccc(F)cc1 (centres undefined)
IC50 (U-87 MG [1]): 7.87 µM
IC50 (A549): 3.25 µM
IC50 (Huh-7): 2 µM
IC50 at 48 h [2]: 7.58 µM

Cc1ccc2ccc3c(c2n1)OC(N)=C(C#N)C3c1cccc(Cl)c1Cl (centres undefined)
IC50 (U-87 MG [1]): 3.69 µM
IC50 (A549): > 10 µM
IC50 (Huh-7): 2.22 µM
IC50 at 48 h [2]: > 10 µM

Cc1ccc(C2C(C#N)=C(N)Oc3c2ccc2cccnc32)cc1 (centres undefined)
IC50 (U-87 MG [1]): > 10 µM
IC50 (A549): > 10 µM
IC50 (Huh-7): > 10 µM
IC50 at 48 h [2]: > 10 µM

N#CC1=C(N)Oc2c(cc(Cl)c3cccnc23)C1c1ccccc1 (centres undefined)
IC50 (U-87 MG [1]): 4.38 µM
IC50 (A549): 9.66 µM
IC50 (Huh-7): 0.3 µM
IC50 at 48 h [2]: > 10 µM

COc1cc(OC)c(C2C(C#N)=C(N)Oc3c2ccc2ccc(C)nc32)cc1OC (centres undefined)
IC50 (U-87 MG [1]): 4.68 µM
IC50 (A549): 8.13 µM
IC50 (Huh-7): 4.64 µM
IC50 at 48 h [2]: 7.87 µM

CCc1ccc(C2C(C#N)=C(N)Oc3c2ccc2ccc(C)nc32)cc1 (centres undefined)
IC50 (U-87 MG [1]): 5.93 µM
IC50 (A549): 2.44 µM
IC50 (Huh-7): 3.46 µM
IC50 at 48 h [2]: > 10 µM

COc1ccc(C2C(C#N)=C(N)Oc3c2ccc2cccnc32)c(OC)c1OC (centres undefined)
IC50 (U-87 MG [1]): > 10 µM
IC50 (A549): > 10 µM
IC50 (Huh-7): > 10 µM
IC50 at 48 h [2]: > 10 µM

N#CC1=C(N)Oc2c(ccc3cccnc23)C1c1ccc(Cl)cc1 (centres undefined)
IC50 (U-87 MG [1]): > 10 µM
IC50 (A549): > 10 µM
IC50 (Huh-7): > 10 µM
IC50 at 48 h [2]: > 10 µM

N#CC1=C(N)Oc2c(ccc3cccnc23)C1c1ccc(F)cc1 (centres undefined)
IC50 (U-87 MG [1]): > 10 µM
IC50 (A549): > 10 µM
IC50 (Huh-7): > 10 µM
IC50 at 48 h [2]: > 10 µM

COc1ccc(C2C(C#N)=C(N)Oc3c2cc(Cl)c2cccnc32)cc1OC (centres undefined)
IC50 (U-87 MG [1]): > 10 µM
IC50 (A549): > 10 µM
IC50 (Huh-7): > 10 µM
IC50 at 48 h [2]: > 10 µM

CC(C)c1ccc(C2C(C#N)=C(N)Oc3c2cc(Cl)c2cccnc32)cc1 (centres undefined)
IC50 (U-87 MG [1]): > 10 µM
IC50 (A549): > 10 µM
IC50 (Huh-7): > 10 µM
IC50 at 48 h [2]: > 10 µM

COc1ccc(C2C(C#N)=C(N)Oc3c2ccc2cccnc32)cc1OC (centres undefined)
IC50 (U-87 MG [1]): > 10 µM
IC50 (A549): > 10 µM
IC50 (Huh-7): 2.95 µM
IC50 at 48 h [2]: > 10 µM

Cc1ccc(C2C(C#N)=C(N)Oc3c2ccc2ccc(C)nc32)cc1 (centres undefined)
IC50 (U-87 MG [1]): 6.12 µM
IC50 (A549): 3.05 µM
IC50 (Huh-7): 5.51 µM
IC50 at 48 h [2]: 9.02 µM

N#CC1=C(N)Oc2c(cc(Cl)c3cccnc23)C1c1ccc(Cl)c(Cl)c1 (centres undefined)
IC50 (U-87 MG [1]): 4.13 µM
IC50 (A549): 6.42 µM
IC50 (Huh-7): 2.14 µM
IC50 at 48 h [2]: > 10 µM
